Reference: publication PMC10377586 (Biomolecules, 2023)

Tests used:
rat D1 receptor = molecular target: T1, rat D1 receptor (Rattus norvegicus, UniProt P18901); assay: Radioligand binding [3H]SCH23390, rat brain tissue; conditions: for Ki: native rat D1 receptor, read-out: rD1 [3H]SCH23390 Ki ± SEM; for inhibition at 1 µM: read-out: rD1 [3H]SCH23390 % inhibition ± SEM at 1 µM
T1 construct: source of native rat D1 receptor protein; from tissue; host or cells: rat striatum (methods) / rat brain cortical membranes
T1 sequence (P18901 whole entry): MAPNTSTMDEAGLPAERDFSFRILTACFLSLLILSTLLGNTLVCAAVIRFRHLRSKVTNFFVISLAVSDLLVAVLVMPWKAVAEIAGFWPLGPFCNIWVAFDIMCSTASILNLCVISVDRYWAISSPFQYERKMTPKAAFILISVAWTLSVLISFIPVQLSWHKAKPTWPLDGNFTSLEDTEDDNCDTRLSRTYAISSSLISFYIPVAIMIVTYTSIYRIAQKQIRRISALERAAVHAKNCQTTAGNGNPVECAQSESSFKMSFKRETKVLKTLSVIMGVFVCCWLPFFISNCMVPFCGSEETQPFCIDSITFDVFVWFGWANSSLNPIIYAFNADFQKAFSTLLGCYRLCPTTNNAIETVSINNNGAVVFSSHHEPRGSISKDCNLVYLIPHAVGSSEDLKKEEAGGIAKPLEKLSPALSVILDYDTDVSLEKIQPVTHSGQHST
Procedure: (§1) Rat brain cortical membranes were used as source of native rat D1 receptor protein, and human D2 receptor was recombinantly expressed in HEK293 cells.
Rat striatum tissue was thawed in 50 volumes of ice-cold 50 mM potassium phosphate buffer, pH 7.4, homogenized and centrifuged at 20,000× g for 20 min. The resulting pellet was resuspended in the same quantity of the buffer and centrifuged again for 20 min. Binding experiments were conducted in 96-well microplates in a total volume of 250 μL of appropriate buffers. Reaction mix included 50 μL solution of test compound, 50 μL of radioligand, and 150 μL of tissue suspension (3 mg/mL). [^3H]SCH23390 (spec. act. 81.9 Ci/mmol, PerkinElmer, NET 930) was used for labeling the D1-receptor. For measuring unspecific binding, cis(Z)flupentixol—5 μM was applied. Samples were incubated at 30 °C for 60 min. The incubation was terminated by rapid filtration over glass fiber filters GF/B using a Harvester (PerkinElmer, USA). The radioactivity was measured in MicroBeta TriLux 1450—liquid scintillation counter (PerkinElmer). Each compound was tested in a screening assay in duplicate at final concentrations of 1 µM. Results were expressed as a percent of inhibition of specific binding.

human PDE10A1 = molecular target: T2, human PDE10A1 (Homo sapiens, UniProt Q9Y233); assay: PDElight HTS cAMP phosphodiesterase assay, PDE10A1; format: biochemical; conditions: for inhibition at 10 µM: read-out: PDE 10A1 % Inhibition ± SEM at 10 µM; for IC50: read-out: PDE 10A1 IC50 ± SEM
T2 construct: purchased BPS Biosciences
T2 sequence (Q9Y233 1-779 isoform Q9Y233-1): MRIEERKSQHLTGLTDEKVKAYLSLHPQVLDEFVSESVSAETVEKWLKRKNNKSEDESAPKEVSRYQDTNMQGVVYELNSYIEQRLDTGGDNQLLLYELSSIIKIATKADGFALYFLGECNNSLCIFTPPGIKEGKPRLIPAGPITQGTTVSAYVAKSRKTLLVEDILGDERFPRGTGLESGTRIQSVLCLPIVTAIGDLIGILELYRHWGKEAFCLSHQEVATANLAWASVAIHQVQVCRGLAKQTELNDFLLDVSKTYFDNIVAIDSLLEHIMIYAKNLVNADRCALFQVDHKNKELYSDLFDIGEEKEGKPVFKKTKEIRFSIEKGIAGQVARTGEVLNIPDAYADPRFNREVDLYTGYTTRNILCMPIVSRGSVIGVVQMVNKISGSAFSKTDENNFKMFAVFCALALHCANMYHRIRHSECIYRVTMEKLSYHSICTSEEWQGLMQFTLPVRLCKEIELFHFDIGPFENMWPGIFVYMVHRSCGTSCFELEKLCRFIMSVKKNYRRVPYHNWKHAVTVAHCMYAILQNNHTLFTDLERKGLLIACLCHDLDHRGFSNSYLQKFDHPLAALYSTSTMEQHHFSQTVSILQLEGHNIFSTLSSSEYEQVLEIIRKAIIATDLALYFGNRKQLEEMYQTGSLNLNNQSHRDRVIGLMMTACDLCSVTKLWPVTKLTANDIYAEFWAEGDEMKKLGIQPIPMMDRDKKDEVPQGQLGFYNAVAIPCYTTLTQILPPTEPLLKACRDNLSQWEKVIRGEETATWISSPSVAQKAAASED
Procedure: Further biological evaluation of the presented compound library was performed determining inhibitory potencies against selected human PDE isoforms, namely, PDE4 and PDE10 (for results see Table 3).
Tested and reference compounds were dissolved in dimethyl sulfoxide (DMSO) at a concentration of 10 mM and further diluted in assay buffer (10 mM Tris-HCl, 10 mM magnesium chloride and 0.05% Tween-20; pH 7.4). Inhibition of human PDE10A and 4B1 was measured using PDElight HTS cAMP phosphodiesterase assay kit (Lonza, Basel, Switzerland) according to manufacturer’s recommendations. Then, 10 ng of PDE10A and 5 ng of PDE4B1 (BPS Biosciences, San Diego, CA, USA) in appropriate buffer was incubated with reference and tested compound for 20 min. […] Then PDELight AMP Detection Reagent was added and incubated 10 min. All reactions were carried out at 37 °C in 96 white-walled, half-area-well plates (PerkinElmer). Luminescence was measured in a multifunction plate reader (POLARstar Omega, BMG Labtech, Ortenberg, Germany). The percentage of inhibition and IC50s were computed using GraphPad Prism Version 6.0 software.

DPPH antioxidant assay = format: physicochemical; conditions: compound at 50 µM
Source text: The 2,2-diphenyl-1-picrylhydrazyl (DPPH) assay was used to determine the antioxidant properties of selected compounds using ascorbic acid, trolox, and quercetin as references. […] From a structural point of view, 21 and 22 share a common pyrimido[2,1-f]purinedione core with propyl or butyl substituents at the N1- and N3-position. Compounds 11i and 11l, containing hexyl or phenoxyethyl as N7-substituents, were the only structures in the groups of bicyclic xanthine derivatives that lacked antioxidant activity in the DPPH assay.
Antioxidant properties of considered structures were evaluated in DPPH test. The assay utilizes a stable free radical 2,2-diphenyl-1-picrylhydrazyl (DPPH). DPPH has a deep violet color in solution and strong absorption band at 520 nm. The antioxidant activity of the tested compounds was defined by their ability to induce the formation of the reduced form of DPPH. Upon reduction, DPPH color turned pale yellow, which manifested by decreased sample absorption at 520 nm and was measured in conducted experiments using EnSpire microplate reader (PerkinElmer). Antioxidant activity of xanthine derivatives and reference compounds was tested in triplicate at 50 µM concentration and normalized to the activity of reference radical scavenger—quercetin.
Figure 2 Antioxidant properties of xanthine derivatives evaluated in the DPPH test. All compounds were tested at 50 µM concentration. Results were normalized to the antioxidant activity measured for quercetin. ASC, ascorbic acid; TLX, trolox; QCT, quercetin.

human D2L receptor = human D2L receptor (Homo sapiens, UniProt P14416); assay: Radioligand binding [3H]-raclopride, HEK293 membranes; conditions: HEK293 cells, human D2; read-out: hD2 [3H]-Raclopride Ki ± SEM
human D2L receptor, sequence (P14416 whole entry): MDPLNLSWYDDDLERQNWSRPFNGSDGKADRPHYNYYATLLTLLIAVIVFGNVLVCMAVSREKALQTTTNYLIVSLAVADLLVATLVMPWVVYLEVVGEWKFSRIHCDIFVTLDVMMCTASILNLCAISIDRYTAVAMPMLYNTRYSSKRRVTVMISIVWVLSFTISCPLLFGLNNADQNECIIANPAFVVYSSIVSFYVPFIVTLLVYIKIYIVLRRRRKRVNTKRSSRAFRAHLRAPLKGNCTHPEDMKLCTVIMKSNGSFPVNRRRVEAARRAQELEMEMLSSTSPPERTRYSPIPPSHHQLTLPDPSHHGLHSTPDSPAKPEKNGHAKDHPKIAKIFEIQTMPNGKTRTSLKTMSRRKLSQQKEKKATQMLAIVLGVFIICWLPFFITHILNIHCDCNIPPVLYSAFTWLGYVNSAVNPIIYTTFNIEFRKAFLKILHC
Procedure: as §1
HEK293 cells with stable expression of human D2L receptor were maintained at 37 °C in a humidified atmosphere with 5% CO2 and grown in Dulbecco’s Modifier Eagle Medium containing 10% dialyzed fetal bovine serum and 500 µg/mL G418 sulfate. For membrane preparation, cells were subcultured in 150 cm^2 flasks, grown to 90% confluence, washed twice with prewarmed to 37 °C phosphate buffered saline (PBS), and pelleted by centrifugation (200× g) in PBS containing 0.1 mM EDTA and 1 mM dithiothreitol. Prior to membrane preparation, pellets were stored at −80 °C.
Cell pellets were thawed and homogenized in 10 volumes of assay buffer using an Ultra Turrax tissue homogenizer and centrifuged twice at 35,000× g for 15 min at 4 °C. The incubation buffer consisted of 50 mM Tris-HCl, 1 mM EDTA, 4 mM MgCl2, 120 mM NaCl, 5 mM KCl, 1.5 mM CaCl2, and 0.1% ascorbate. Assay was incubated in a total volume of 200 µL in 96-well microtiter plate for 1 h at 37 °C. The process of equilibration was terminated by rapid filtration through Unifilter plate with a 96-well cell harvester and radioactivity retained on the filter was quantified on a Microbeta plate reader (PerkinElmer). For competition studies, the assay samples contained radioligand 2.5 nM [^3H]-raclopride (PerkinElmer). Non-specific binding was defined with 10 µM of haloperidol. Each compound was tested in triplicate at 7 concentrations (10^−10–10^−4 M). The inhibition constants (Ki) were calculated from the Cheng–Prusoff equation [66]. Results were expressed as means of at least two separate experiments.

Row | SMILES | Ki (rat D1 receptor) [nM] | inhibition at 1 µM (rat D1 receptor) [%] | inhibition at 10 µM (human PDE10A1) [%] | IC50 (human PDE10A1) [µM] | Ki (human D2L receptor) [µM] | Antioxidative Activity [% of Quercetin Response at 50 µM ± SD] (DPPH antioxidant assay)
1 | Cn1c(=O)c2c(nc(NCCc3ccc(O)c(O)c3)n2C)n(C)c1=O [Compound 11a, 8-((3,4-Dihydroxyphenethyl)amino)-1,3,7-trimethyl-3,7-dihydro-1H-purine-2,6-dione] | > 1000 | 13 |  | 15.1 ± 3.1 | 25.2 ± 5.97 | 79 ± 1 % of Quercetin Response
2 | CCn1c(NCCc2ccc(O)c(O)c2)nc2c1c(=O)n(C)c(=O)n2C [Compound 11b, 8-((3,4-Dihydroxyphenethyl)amino)-7-ethyl-1,3-dimethyl-3,7-dihydro-1H-purine-2,6-dione] | > 1000 | 15 |  | 4.63 ± 1.25 | 16.2 ± 1.23 | 75 ± 1 % of Quercetin Response
3 | Cn1c(=O)c2c(nc(NCCc3ccc(O)c(O)c3)n2CCc2ccccc2)n(C)c1=O [Compound 11k, 8-((3,4-Dihydroxyphenethyl)amino)-1,3-dimethyl-7-phenethyl-3,7-dihydro-1H-purine-2,6-dione] | > 1000 | 6 |  | 2.41 ± 0.07 | 9.95 ± 1.95 | 73 ± 3 % of Quercetin Response
4 | CCC(C)n1c(NCCc2ccc(O)c(O)c2)nc2c1c(=O)n(C)c(=O)n2C (stereo not shown) [Compound 11g, 7-(Sec-butyl)-8-((3,4-dihydroxyphenethyl)amino)-1,3-dimethyl-3,7-dihydro-1H-purine-2,6-dione] | > 1000 | 11 |  | 10.2 ± 0.9 | 39.2 ± 8.43 | 71 ± 1 % of Quercetin Response
5 | Cn1c(=O)c2c(nc(NCCc3ccc(O)c(O)c3)n2CCOc2ccccc2)n(C)c1=O [Compound 11l, 8-((3,4-Dihydroxyphenethyl)amino)-1,3-dimethyl-7-(2-phenoxyethyl)-3,7-dihydro-1H-purine-2,6-dione] | > 1000 | 3 | 17 | > 10 | 8.87 ± 0.94 | 26 ± 3 % of Quercetin Response
6 | Cn1c(=O)c2c(nc3n2CCCCN3CCc2ccc(O)c(O)c2)n(C)c1=O [Compound 20b, 10-(3,4-Dihydroxyphenethyl)-1,3-dimethyl-7,8,9,10-tetrahydro-1H-[1, 3]diazepino[2,1-f]purine-2,4(3H,6H)-dione] | > 1000 | 15 |  | 30.7 ± 0.2 | 10.7 ± 1.4 | 79 ± 1 % of Quercetin Response

Continued, in another order:

Row | Ki (rat D1 receptor) [nM] | inhibition at 1 µM (rat D1 receptor) [%] | inhibition at 10 µM (human PDE10A1) [%] | IC50 (human PDE10A1) [µM] | Ki (human D2L receptor) [µM] | SMILES | Antioxidative Activity [% of Quercetin Response at 50 µM ± SD] (DPPH antioxidant assay)
7 | > 1000 | 12 | 51 | ≥ 10 | 8.26 ± 0.48 | CCCCCn1c(NCCc2ccc(O)c(O)c2)nc2c1c(=O)n(C)c(=O)n2C [Compound 11h, 8-((3,4-Dihydroxyphenethyl)amino)-1,3-dimethyl-7-pentyl-3,7-dihydro-1H-purine-2,6-dione] | 79 ± 1 % of Quercetin Response
8 | > 1000 | 3 | 36 | ≥ 10 | 9.1 ± 1.65 | Cn1c(=O)c2c(nc(NCCc3ccc(O)c(O)c3)n2Cc2ccccc2)n(C)c1=O [Compound 11j, 7-Benzyl-8-((3,4-dihydroxyphenethyl)amino)-1,3-dimethyl-3,7-dihydro-1H-purine-2,6-dione] | 82 ± 1 % of Quercetin Response
9 | > 1000 | 9 |  | 2.73 ± 0.03 | 13.3 ± 2.2 | CCCn1c(=O)c2c(nc(NCCc3ccc(O)c(O)c3)n2CCC)n(CCC)c1=O [Compound 12, 8-((3,4-Dihydroxyphenethyl)amino)-1,3,7-tripropyl-3,7-dihydro-1H-purine-2,6-dione] | 86 ± 3 % of Quercetin Response
10 | > 1000 | 15 | 35 | > 10 | 6.68 ± 0.87 | Cn1c(=O)c2c(nc3n2CCCN3CCc2ccc(O)c(O)c2)n(C)c1=O [Compound 20a, 9-(3,4-Dihydroxyphenethyl)-1,3-dimethyl-6,7,8,9-tetrahydropyrimido[2,1-f]purine-2,4(1H,3H)-dione] | 68 ± 2 % of Quercetin Response
11 | > 1000 | 9 | 14 | > 10 | 6.68 ± 0.95 | CCCCCCn1c(NCCc2ccc(O)c(O)c2)nc2c1c(=O)n(C)c(=O)n2C [Compound 11i, 8-((3,4-Dihydroxyphenethyl)amino)-7-hexyl-1,3-dimethyl-3,7-dihydro-1H-purine-2,6-dione] | 26 ± 1 % of Quercetin Response
12 | > 1000 | 11 | 25 | > 10 | 16.6 ± 2.3 | CCCCn1c(=O)c2c(nc3n2CCCN3CCc2ccc(O)c(O)c2)n(CCCC)c1=O [Compound 22, 1,3-Dibutyl-9-(3,4-dihydroxyphenethyl)-6,7,8,9-tetrahydropyrimido[2,1-f]purine-2,4(1H,3H)-dione] | 26 ± 2 % of Quercetin Response
13 | > 1000 | 13 |  | 3.77 ± 1.29 | 12.7 ± 1.86 | CCCCn1c(NCCc2ccc(O)c(O)c2)nc2c1c(=O)n(C)c(=O)n2C [Compound 11e, 7-Butyl-8-((3,4-dihydroxyphenethyl)amino)-1,3-dimethyl-3,7-dihydro-1H-purine-2,6-dione] | 75 ± 1 % of Quercetin Response
14 | > 1000 | 15 |  | 2.3 ± 0.64 | 17.7 ± 3.99 | CC(C)n1c(NCCc2ccc(O)c(O)c2)nc2c1c(=O)n(C)c(=O)n2C [Compound 11d, 8-((3,4-Dihydroxyphenethyl)amino)-7-isopropyl-1,3-dimethyl-3,7-dihydro-1H-purine-2,6-dione] | 87 ± 1 % of Quercetin Response
